Values joined by “and” are separate entries in the source; they are usually repeats but may differ in a detail not shown here. Equal entries are not always repeated. Where two headings read alike, the source gives them in different places.
Molecular target: T1, human type 5 17β-hydroxysteroid dehydrogenase (Homo sapiens, UniProt P42330)
T1 construct: screen again a human placental λgt11 cDNA to get the full length cDNA clone; expressed in transfected cells; host or cells: human embryonal kidney 293 cells (pCMV / pCMV-neo vector)
T1 sequence (P42330 1-323): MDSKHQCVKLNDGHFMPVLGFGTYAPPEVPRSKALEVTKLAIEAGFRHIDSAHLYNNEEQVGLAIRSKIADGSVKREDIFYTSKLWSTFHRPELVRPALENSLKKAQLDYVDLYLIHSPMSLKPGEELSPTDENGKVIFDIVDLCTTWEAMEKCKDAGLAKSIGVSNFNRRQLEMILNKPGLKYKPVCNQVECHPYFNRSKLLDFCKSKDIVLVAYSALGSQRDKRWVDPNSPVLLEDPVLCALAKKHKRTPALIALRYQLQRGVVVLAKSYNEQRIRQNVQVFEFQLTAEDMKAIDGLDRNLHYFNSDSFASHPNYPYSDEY
Assay: Inhibition of human type 5 17β-HSD activity in transfected 293 cells
Format: cell-based
Parameters: Inhibition Type V 17B-HSD % Inh. At 3 · 10^−7 (second value in parentheses): concentration or dose not given beside the values
Conditions: for Inhibition Type V 17B-HSD % Inh. At 3 · 10^−7 (first value in parentheses): first of two concentrations; for Inhibition Type V 17B-HSD % Inh. At 3 · 10^−7 (second value in parentheses): second of two concentrations
Protocol: The manner in which IC50 was determined is described in “Efficacy of the Preferred Inhibitors”. Lower numbers for IC50 are desirable.
Using a oligoprimer pair (5′-GGA-AAT-CGT-GAC-AGG-GAA-TGG-ATT-CCA-AAC-AG-3′, 5′-GGA-ATT-CTT-TAT-TGT-ATT-TCT-GGC-CTA-TGG-AGT-GAG-3′) derived from human aldoketoreductase (Qin et al., J. Steroid Biochem. Molec. Biol. 46: 673-679, 1993) and polymerase chain reaction (PCR), we have amplified from a human placental λgt11 cDNA library (Clontech Laboratories Inc., Palo Alto, Calif.) a cDNA fragment that was used as probe to screen again a human placental λgt11 cDNA to get the full length cDNA clone. The amplified cDNA fragment was purified on agarose gel and labeled with [α^32P]dCTP (Amersham Corp.) using the random primer labeling kit from Pharmacia Inc. PCR amplification reaction medium contained 50 mM KCl, 10 mM Tris-HCl, pH 8.3, 0.1% gelatin, 1 mM MgCl2, 250 μM dNTP, 0.25 μM oligonucleotide primers, and 200 ng of DNA prepared from human placental λgt11 cDNA library. The aqueous phase was overlaid with 75 μL of mineral oil to avoid evaporation. The mixture was heated at 98° C. for 5 min, following the temperature reduction to 72° C., 1 unit of Taq DNA polymerase was added. Using a DNA Thermal Cycler (Perkin-Elmer Corp.), 30 cycles of amplification were carried out using a step program (94° C., 1 min; 60° C., 1 min; and 72° C., 1 min)/cycle.
Approximately 5×10^5 recombinant phage plaques were screened with 1.5×10^6 cpm/ml of the probe. Prehybridization was performed for 4 h at 42° C. in 50% formamide, 5× Denhardt's solution (1× Denhardt's being 0.02% polyvinyl pyrrolidone, 0.02 Ficoll, 0.02 bovine serum albumin), 5×SSPE (1×SSPE being 0.18M NaCl, 10 mM NaH2PO4, pH 7.4, 1 mM EDTA), 0.1% SDS, and 100 μg/ml yeast tRNA. The probe was denatured by heating at 100° C. for 5 min, before being added to the hybridization solution at 42° C. overnight. Filters were then washed twice at room temperature in 2×SSC (1×SSC being […], pH 7.0), 0.1% SDS, and twice in 0.1×SSC, 0.1% SDS at 60° C. Positive recombinant plaques were purified by replating twice and grown in liquid culture. Phage DNA were isolated by centrifugation for 90 min at 105,000×g, and DNA was then isolated by phenol extraction and precipitation with isopropanol (Karen et al. 1987; In: Current Protocols in Molecular Biology (F. M. Ausubel, R. Brent, E. Kingston, D. D. Moore, T. G. Seidman, T. A. Smith and K. Struhl, eds), Wiley & Sons, New York, pp. 1.13.1-1.13.6).
The phage DNA were digested with EcoRI restriction enzymes and the resulting cDNA fragments were inserted into the EcoRI site downstream to the cytomegalovirus (CMV) promoter of the pCMV vector (kindly provided by Dr. Matthew, Cold Spring Harbor, N.Y., USA). Recombinant pCMV plasmids were amplified in Escherichia Coli DH5α competent cells, and were isolated by alkaline lysis procedure (Maniatis et al., In: Molecular cloning: a laboratory manual, Cold Spring Harbor Laboratory., 1982). Sequencing of double-stranded plasmid DNA was performed according to the dideoxy chain termination method (Sanger et al., PNAS 74: 5453-5467, 1977) using a T7 DNA polymerase sequencing kit (Pharmacia LKB Biotechnology). To avoid errors, all sequences were determined by sequencing both strands of the DNA. Oligonucleotide primers were synthesized in our laboratory with a 394 DNA/RNA synthesizer (Applied Biosystem).
The pCMV vector contain 576 nucleotides of the pCMV promoter (followed by 432 bp of small t intron (fragment 4713-4570) and poly adenylation signal (2825-2536)of SV40, followed by 1989 bp of the Pvu II(628)-AatII (2617) fragment from pUC 19 vector (New England Biolabs) that contains an E. Coli origin of replication and an ampicillin resistance gene for propagation in E. Coli. […]

[1] = Table 4′, read-out: Inhibition Type V 17β-HSD IC50
[2] = read-out: Inhibition Type V 17β-HSD IC50
[3] = read-out: Inhibition Type V 17B-HSD IC50

Structure (SMILES)	IC50 [1]	also measured
CC1(C)CCC2(CCC3C4CCc5cc(OS(C)(=O)=O)ccc5C4CCC32C)OC1=O (centres unmarked) [EM-1365-CS]	12 nM	–
CC(=O)O[C@]1(C(=O)N(C)C)CCC2C3C=C(C)C4=CC(=O)CC[C@]4(C)C3CC[C@@]21C (some centres unmarked) [EM-1159]	–	IC50 [2]: 14 ± 2 nM
COc1cc2c(cc1C)C1CCC3(C)C(CCC34CCC(C)(C)C(=O)O4)C1CC2 (centres unmarked) [EM-1412-CS]	54 nM	–
CN1C(=O)C=C[C@]2(C)C3CC[C@@]4(C)C(CC[C@@]45CCCC(=O)O5)C3CCC12 (some centres unmarked) [EM-1122-CS]	–	Inhibition Type V 17β-HSD % inh. At 3.10^−6 (Table 5 column 2, 3.10^−6): 95) %; Inhibition Type V 17β-HSD % inh. At 3.10^−7 (Table 5 column 2, 3.10^−7): (80%
CC1CCC2(CCC3C4CCc5cc(O)c([N+](=O)[O-])cc5C4CCC32C)OC1=O [EM-1126, 2-Nitro-1,3,5(10)-estratrien-3-ol-17(R)-spiro-2′-(5′-methyl-6′-oxo)tetrahydropyran]	6 ± 1 nM	–
CN(C)C(=O)c1cc2c(cc1O)CCC1C2CCC2(C)C1CCC21CCC(C)(C)C(=O)O1 (centres unmarked) [EM-01661-B]	19.2 ± 1 nM	–
COCCOc1cc2c(cc1C(=O)OC)C1CC[C@@]3(C)C(CC[C@@]34CCC(C)(C)C(=O)O4)C1CC2 (stereo partly drawn) [EM-1402-CS, 2-Carbomethoxy-3-(2″-methoxyethyloxy)-1,3,5(10)-estratrien 17(R)-spiro-2′-(5′,5′-dimethyl-6′-oxo)tetrahydropyran]	12 nM	–
CC1=C[C@@H]2[C@H](CC[C@]3(C)C(=O)C4(CCCCC4)C[C@@H]23)[C@@]2(C)CCC(=O)C=C12 [EM-925]	–	Inhibition Type V 17B-HSD % Inh. At 3 · 10^−7 (first value in parentheses) (3 · 10^−7): (46%; Inhibition Type V 17B-HSD % Inh. At 3 · 10^−7 (second value in parentheses) (3 · 10^−7): 81) %
CC1(C)CC[C@@]2(CCC3C4CCc5cc(F)ccc5C4CC[C@@]32C)OC1=O (some centres unmarked) [EM-1157-CS]	4 nM and 10 nM	–
COC(=O)c1cc2c(cc1O)CCC1C2CCC2(C)C1CCC21CCC(C)(C)C(=O)O1 (centres unmarked) [EM-01662]	35 ± 5 nM	–
COCCOc1ccc2c(c1)CCC1C2CCC2(C)C1CCC21CCC(C)(C)C(=O)O1 [EM-1368-CS, 3-Methoxyethoxy-1,3,5(10)-estratrien-17(R)-spiro-2′-(5′,5′-dimethyl-6′-oxo)-tetrahydropyran]	21 nM	–
COCCOc1cc2c(cc1C(N)=O)C1CC[C@@]3(C)C(CC[C@@]34CCC(C)(C)C(=O)O4)C1CC2 (stereo partly drawn) [EM-1424, 2-Carbamoyl-3-(2″-methoxyethyloxy)-1,3,5(10)-estratrien 17(R)-spiro-2′-(5′,5′-dimethyl-6′-oxo)tetrahydropyran]	9.5 nM	–
CCC(=O)O[C@]1(C(C)=O)CCC2C3C=C(C)C4=CC(=O)C[C@H](C)[C@]4(C)C3CC[C@@]21C (some centres unmarked) [CS-243]	–	IC50 [2]: 3.5 ± 0.1 nM
C[C@]12CCC3c4cc([N+](=O)[O-])c(O)cc4CCC3C1CC[C@@]21CCCC(=O)O1 (stereo partly drawn) [EM-1124, 2-Nitro-1,3,5(10)-estraetriene-3-ol-17(R)-spiro-2′-(6′-oxo)tetrahydropyran]	3 ± 0.2 nM	–
CC12C=CC(=O)C=C1C=CC1C2CCC2(C)C(=O)C3(CCCCC3)CC12 (centres unmarked) [CS-204]	–	IC50 [3]: 94 nM
C[C@]12CCC3c4ccc(O)cc4CCC3C1CC[C@@]21CCCC(=O)O1 (stereo partly drawn) [EM-919, 1,3,5(10)-estratrien-3-ol-17(R)-spiro-2′(6′-oxo)tetrahydropyran]	10 ± 1.4 nM	–
CC1CCC2(CCC3C4CCc5ccccc5C4CCC32C)OC1=O (centres unmarked) [EM-1025]	6.1 nM and 4.3 nM	–

Structure (SMILES)	IC50 [1]	also measured
C=CCC1CCC2(CCC3C4CCc5cc(O)ccc5C4CCC32C)OC1=O [PB-132-152, 3-Hydroxy-1,3,5(10)-estratrien-17(R)-2′-(5′-allyl-6′-oxo)tetrahydropyran]	107 ± 9 nM	–
CC(C)C[C@@H]1CC2C3C=CC4=CC(=O)CC[C@]4(C)C3CC[C@]2(C)C1=O (some centres unmarked) [EM-1273-CS]	–	IC50 [3]: 9 nM
COCCOc1cc2c(cc1Cl)C1CCC3(C)C(CCC34CCC(C)(C)C(=O)O4)C1CC2 (centres unmarked) [EM-1371-CS]	19 nM and 20 nM	–
COCCOc1cc2c(cc1F)C1CCC3(C)C(CCC34CCC(C)(C)C(=O)O4)C1CC2 (centres unmarked) [EM-1393-CS]	16 nM	–
CCC[C@@H]1CC2C3C=CC4=CC(=O)CC[C@]4(C)C3CC[C@]2(C)C1=O (some centres unmarked) [EM-1097]	–	IC50 [3]: 10 nM
CC1CC(=O)OC2(CCC3C4CCc5cc(O)ccc5C4CCC32C)C1 [PB-132-142, 3-Hydroxy-1,3,5(10)-estratrien-17(R)-spiro-2′-(4′-methyl-6′-oxo)tetrahydropyran]	19 ± 1.5 nM	–
C[C@]12CCC(=O)C=C1C=C[C@@H]1[C@@H]2CC[C@]2(C)C(=O)C3(CC4CC4C3)C[C@@H]12 (some centres unmarked) [EM-1299, 4,6-Androstadien-3,17-dione-16-spirobicyclo[3′.1′.0′]-hexane]	–	Inhibition Type V 17B-HSD % Inh. At 3 · 10^−7 (first value in parentheses) (3 · 10^−7): (73%; Inhibition Type V 17B-HSD % Inh. At 3 · 10^−7 (second value in parentheses) (3 · 10^−7): 99) %
CC1(C)CC[C@@]2(CCC3C4CCc5cc(C(N)=O)ccc5C4CCC32C)OC1=O (some centres unmarked) [EM-1404]	–	IC50 (Inhibition Type V 17β-HSD IC50, Table 4′): 3.2 ± 1.5 nM
CC(=O)O[C@]1(C(C)=O)CCC2C3C=C(C)C4=CC(=O)CC[C@]4(C)C3CC[C@@]21C (some centres unmarked) [megestrol acetate, reference compound]	–	inhibition of type 5 17β-hydroxysteroid dehydrogenase (in words): inhibit that type 5 enzyme; IC50 [2]: 17.4 ± 2.8 nM
CN(C)C(=O)c1ccc2c(c1)CCC1C2CCC2(C)C1CCC21CCC(C)(C)C(=O)O1 (centres unmarked) [EM-1403]	7.2 ± 1.6 nM	–
COCCOc1cc2c(cc1C(=O)N(C)C)C1CCC3(C)C(CCC34CCC(C)(C)C(=O)O4)C1CC2 (centres unmarked) [EM-1413-CS]	17 nM	–
CC1(C)CCC2(CCC3C4CCc5cc(O)c(C#N)cc5C4CCC32C)OC1=O (centres unmarked) [EM-01645]	4.5 ± 0.3 nM	–
COc1ccc2c(c1)C(=O)CC1C2CC[C@@]2(C)C1CC[C@@]21CCC(C)(C)C(=O)O1 (some centres unmarked) [EM-1394]	9 nM	–
CC12CCC3c4ccc(F)cc4CCC3C1CCC21CCCC(=O)O1 (centres unmarked) [EM-1170-CS]	7 ± 1 nM	–
CC1(C)CCC2(CCC3C4CCc5cc(C(=O)OCc6ccccc6)ccc5C4CCC32C)OC1=O (centres unmarked) [EM-1398]	–	Inhibition Type V 17β-HSD % Inh. at 3 · 10^−6 (Table 4′, 3 · 10^−6): 89%; Inhibition Type V 17β-HSD % Inh. at 3 · 10^−7 (Table 4′, 3 · 10^−7): 70%
CCCC(=O)OC1(C(C)=O)CCC2C3C=C(C)C4=CC(=O)CC(C)C4(C)C3CCC21C (centres unmarked) [CS-245]	–	IC50 [2]: 3.2 ± 0.1 nM

Reference: patent publication US6541463B1, “Inhibitors of type 5 and type 3 17β-hydroxysteroid dehydrogenase and methods for their use” (Endorecherche, Inc., priority 1998, dated 2003)
